According to ChEMBL document CHEMBL5303304, “EUbOPEN Chemogenomics Library - IncuCyte” (2023):

Key:
Type in all cases: toxicity, cell-based
HEK-293T = test: Incucyte cell viability with HEK293T; settings: human, 10 µM, compound concentration 10 uM
Fibroblast = test: Incucyte cell viability with human fibroblast; settings: 10 µM, compound concentration 10 uM
U2OS = test: Incucyte cell viability with U2OS; settings: human, 10 µM, compound concentration 10 uM
Further: unitless GR value; below 1 slowed growth and below 0 cell loss.

Row | Compound | Growth Rate (HEK-293T; 6 h, replicate number 1) | Growth Rate (HEK-293T; 12 h, replicate number 1) | Growth Rate (HEK-293T; 12 h, replicate number 2) | Growth Rate (HEK-293T; 18 h, replicate number 1) | Growth Rate (HEK-293T; 18 h, replicate number 2) | Growth Rate (HEK-293T; 24 h, replicate number 1) | Growth Rate (HEK-293T; 24 h, replicate number 2) | Growth Rate (Fibroblast; 0 h, replicate number 2) | Growth Rate (Fibroblast; 6 h, replicate number 1) | Growth Rate (Fibroblast; 6 h, replicate number 2) | Growth Rate (Fibroblast; 12 h, replicate number 1) | Growth Rate (Fibroblast; 12 h, replicate number 2) | Growth Rate (Fibroblast; 18 h, replicate number 1) | Growth Rate (Fibroblast; 18 h, replicate number 2) | Growth Rate (Fibroblast; 24 h, replicate number 1) | Growth Rate (Fibroblast; 24 h, replicate number 2) | Growth Rate (U2OS; 0 h, replicate number 2) | Growth Rate (U2OS; 12 h, replicate number 1) | Growth Rate (HEK-293T; 0 h, replicate number 2) | Growth Rate (U2OS; 6 h, replicate number 2) | further results
1 | COc1ccc(COc2ccc(Cc3cnc(N)nc3N)cc2OC)cc1 [GW632580X] | 0.7 | 0.83 | 0.92 | 0.93 | 0.87 | 0.91 | 0.92 | -0.61 | 0.69 | 0.45 | 0.73 | 0.22 | 0.86 | 0.48 | 0.78 | 0.57 | 0.63 | 0.7 |  |  | Growth Rate (U2OS; 6 h, replicate number 1): 0.52; Growth Rate (U2OS; 18 h, replicate number 1): 0.63; Growth Rate (U2OS; 24 h, replicate number 1): 0.89
2 | O=C(CCCN1CCC(O)(c2ccc(Cl)cc2)CC1)c1ccc(F)cc1 [HALOPERIDOL] |  |  | 0.63 |  | 0.65 |  | 0.75 |  | 0.04 | -0.32 | 0.4 | -0.02 | 0.49 | 0.22 | 0.65 | 0.4 | 0.79 | -0.1 | -0.68 | 0.98 | Growth Rate (HEK-293T; 6 h, replicate number 2): 0.42; Growth Rate (U2OS; 0 h, replicate number 1): 0.26; Growth Rate (U2OS; 18 h, replicate number 2): 1
3 | C=CC(=O)N1CCC[C@@H](n2nc(-c3ccc(Oc4ccccc4)cc3)c3c(N)ncnc32)C1 [IBRUTINIB] | -0.5 | -0.04 | -0.25 | 0.36 | 0.27 | 0.51 | 0.25 |  | 0.04 | 0.23 |  | 0.79 | 0.66 |  |  |  | 0.8 | 0.53 | -1 | 0.61 | Growth Rate (HEK-293T; 6 h, replicate number 2): -0.48; Growth Rate (U2OS; 0 h, replicate number 1): -0.06; Growth Rate (U2OS; 6 h, replicate number 1): -0.04; Growth Rate (U2OS; 12 h, replicate number 2): 0.61; Growth Rate (U2OS; 18 h, replicate number 1): 0.56; Growth Rate (U2OS; 24 h, replicate number 1): 0.63; Growth Rate (U2OS; 24 h, replicate number 2): 0.55
4 | O=C1NC(c2cccc([N+](=O)[O-])c2)=CCN1c1ccccc1O [ICILLIN] |  |  |  |  |  |  |  | -0.28 | -0.8 | 0.04 | 0.02 | 0.48 |  | 0.89 |  | 0.91 | 1 |  | 0.85 | 0.82 | Growth Rate (Fibroblast; 0 h, replicate number 1): 0.99; Growth Rate (U2OS; 12 h, replicate number 2): 0.76; Growth Rate (U2OS; 18 h, replicate number 2): 0.96; Growth Rate (U2OS; 24 h, replicate number 2): 0.93
5 | CC[C@H](Nc1ncnc2[nH]cnc12)c1nc2cccc(F)c2c(=O)n1-c1ccccc1 [IDELALISIB] | 0.29 | 0.62 | 0.12 | 0.31 | 0.29 | 0.38 | 0.36 | -0.51 |  | 0.25 |  | 0.49 |  | 0.95 | 0.92 |  |  |  |  | 0.92 | Growth Rate (HEK-293T; 6 h, replicate number 2): -0.34; Growth Rate (Fibroblast; 0 h, replicate number 1): 0.15; Growth Rate (U2OS; 24 h, replicate number 2): 0.94
